In one assay the target is T1, MAO-A (Rattus norvegicus, UniProt P21396).
T1 construct: un homogénat de cerveau total de rat mâle Sprague-Dawley; from tissue; host or cells: whole brain homogenate of male Sprague-Dawley rat
T1 sequence (P21396 1-526): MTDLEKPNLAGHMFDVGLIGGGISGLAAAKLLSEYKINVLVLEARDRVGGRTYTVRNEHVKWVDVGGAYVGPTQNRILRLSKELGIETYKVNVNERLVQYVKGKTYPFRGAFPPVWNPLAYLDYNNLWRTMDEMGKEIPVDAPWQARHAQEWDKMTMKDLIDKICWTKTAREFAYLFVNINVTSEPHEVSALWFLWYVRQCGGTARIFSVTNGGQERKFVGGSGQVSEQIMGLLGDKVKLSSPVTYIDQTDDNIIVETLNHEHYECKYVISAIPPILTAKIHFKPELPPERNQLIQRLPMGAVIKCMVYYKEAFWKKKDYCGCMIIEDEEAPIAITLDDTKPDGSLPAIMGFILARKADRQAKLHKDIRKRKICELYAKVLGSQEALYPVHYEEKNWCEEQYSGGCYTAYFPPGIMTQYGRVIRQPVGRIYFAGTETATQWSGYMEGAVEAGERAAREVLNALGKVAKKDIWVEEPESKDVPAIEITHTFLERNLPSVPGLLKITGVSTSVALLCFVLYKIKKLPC
As to the kind of experiment: MAO-A inhibition in vitro, rat brain homogenate (protocol of DOSTERT P. et coll.). The settings on record: 20 min preincubation; [14C] sérotonine 480 µM, KM = 100 µM; whole brain homogenate of male Sprague-Dawley rat, 1 g tissue/16 ml phosphate buffer pH 7,4; Ki calculated from CI 50. The class given is biochemical. As for the experimental part: (§1) Cette activité-a été mise en évidence par mise en oeuvre du protocole décrit par DOSTERT P. et coll. dans J. Pharm. Pharmacol., 1983, 35, 161-165; ce protocole est basé sur des tests enzymatiques menés avec ou sans préincubation notamment à 37° C pendant 20 minutes et il permet de mesurer in vitro l'effet inhibiteur à l'égard de la MAO-A et de la MAO-B du cerveau de rat.
(§2) Le tableau IV ci-après rassemble les constantes d'inhibition Ki(A) et Ki(B) respectivement des formes A et B de la MAO, obtenues pour un certain nombre de composés selon l'invention en suivant le protocole ci-dessus appliqué à un homogénat de cerveau total de rat mâle Sprague-Dawley, à 1 g de tissu/16 ml de tampon phosphate de pH 7,4.

In a further assay the target is T2, MAO-B (Rattus norvegicus, UniProt P19643).
T2 construct: un homogénat de cerveau total de rat mâle Sprague-Dawley; from tissue; host or cells: whole brain homogenate of male Sprague-Dawley rat
T2 sequence (P19643 1-520): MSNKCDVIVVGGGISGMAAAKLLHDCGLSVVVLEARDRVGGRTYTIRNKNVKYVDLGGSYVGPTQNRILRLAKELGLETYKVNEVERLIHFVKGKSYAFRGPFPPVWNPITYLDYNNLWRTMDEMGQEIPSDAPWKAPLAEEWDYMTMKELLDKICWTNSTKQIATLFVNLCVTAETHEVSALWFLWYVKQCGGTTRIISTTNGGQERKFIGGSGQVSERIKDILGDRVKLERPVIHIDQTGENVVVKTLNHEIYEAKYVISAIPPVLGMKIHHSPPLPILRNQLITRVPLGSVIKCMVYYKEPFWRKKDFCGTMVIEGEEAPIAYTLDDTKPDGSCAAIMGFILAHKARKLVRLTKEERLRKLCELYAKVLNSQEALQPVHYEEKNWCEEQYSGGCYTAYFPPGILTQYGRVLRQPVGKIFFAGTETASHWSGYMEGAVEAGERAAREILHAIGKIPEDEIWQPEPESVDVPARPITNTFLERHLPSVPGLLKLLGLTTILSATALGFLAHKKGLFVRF
In words: MAO-B inhibition in vitro, rat brain homogenate (protocol of DOSTERT P. et coll.). The class given is biochemical. The settings on record: for Ki: 20 min preincubation, [14C] phényléthylamine 12 µM, KM = 6 µM, whole brain homogenate of male Sprague-Dawley rat, 1 g tissue/16 ml phosphate buffer pH 7,4, Ki calculated from CI 50; for Ki (A) / Ki (B): selectivity ratio MAO-A over MAO-B, rat brain homogenate. As for the experimental part:
as §1, §2

Consider seven compounds from patent EP0275742A1, “5-Hydroxymethyl derivatives of 2-oxazolidinones, their preparation and their therapeutical use” (SYNTHELABO, priority 1986, dated 1988).

Bounds are passed on as bounds.

On to `C[C@@H](O)[C@H]1CN(c2ccc(OCC3CCCCC3)cc2)C(=O)O1` [compound 200443], for which, on MAO-A, the Ki – broadly, the equilibrium dissociation constant of an inhibitor or competing ligand from its target – is 10300 nM. In addition, at MAO-B, the Ki is 40 nM and the “Ki (A) / Ki (B)” value worked out at 259.

Turning to “[(chloro-3 benzyloxy)-4 phényl]-3 (hydroxy-1 éthyl)-5 oxazolidinone-2 [compound 340177]”, at MAO-A, the Ki is 2260 nM. In addition, at MAO-B, the Ki is 343 nM and the “Ki (A) / Ki (B)” value is 7.

As for `C[C@@H](O)[C@H]1CN(c2ccc(OCc3ccc(F)c(Cl)c3)cc2)C(=O)O1` [compound 200498], the Ki at MAO-A was 9000 nM. Further, at MAO-B, the Ki was 14 nM and the “Ki (A) / Ki (B)” value worked out at 634.

`C[C@H](O)[C@@H]1CN(c2ccc(OCc3cccc(Cl)c3)cc2)C(=O)O1` [compound 300872, [(chloro-3 benzyloxy)-4 phényl]-3 (hydroxy-1 étant)-5 oxazolidinone-2]: at MAO-A, the Ki is greater than 1000 nM. On MAO-B, the Ki is 1600 nM and the “Ki (A) / Ki (B)” value is on record as > 0,6.

With “[(chloro-3 benzyloxy)-4-phenyl]-3 (hydroxy-1 éthyl)-5 oxazolidinone-2 [compound 340176]”, the Ki at MAO-A was 476 nM; on MAO-B, 100 nM. In addition, on MAO-B, the “Ki (A) / Ki (B)” value stood at 5.

For `C[C@@H](O)[C@H]1CN(c2ccc(OCc3cccc(Cl)c3)cc2)C(=O)O1` [compound 300873, [(chloro-3 benzyloxy)-4 phényl)-3 (hydroxy-1 éthyl)-5 oxazolidinone-2], on MAO-A, the Ki was greater than 17200 nM. Moreover, at MAO-B, the Ki is 27 nM and the “Ki (A) / Ki (B)” value was greater than 640.

Regarding `CC(C)CCOc1ccc(N2C[C@H]([C@@H](C)O)OC2=O)cc1` [compound 200497], the Ki on MAO-A was 6000 nM. On MAO-B, the inhibitory constant (Ki) is 168 nM and the “Ki (A) / Ki (B)” value turned out to be 36.
